{
  "source": "patent US7297489B2",
  "about": "“Mutations in and genomic structure of HERG—a long QT syndrome gene” (University of Utah Research Foundation, priority 1998, dated 2007)",
  "key": {"HERG [1]": {"target": "T1, HERG (Homo sapiens, UniProt Q12809)", "T1 sequence (Q12809 whole entry)": "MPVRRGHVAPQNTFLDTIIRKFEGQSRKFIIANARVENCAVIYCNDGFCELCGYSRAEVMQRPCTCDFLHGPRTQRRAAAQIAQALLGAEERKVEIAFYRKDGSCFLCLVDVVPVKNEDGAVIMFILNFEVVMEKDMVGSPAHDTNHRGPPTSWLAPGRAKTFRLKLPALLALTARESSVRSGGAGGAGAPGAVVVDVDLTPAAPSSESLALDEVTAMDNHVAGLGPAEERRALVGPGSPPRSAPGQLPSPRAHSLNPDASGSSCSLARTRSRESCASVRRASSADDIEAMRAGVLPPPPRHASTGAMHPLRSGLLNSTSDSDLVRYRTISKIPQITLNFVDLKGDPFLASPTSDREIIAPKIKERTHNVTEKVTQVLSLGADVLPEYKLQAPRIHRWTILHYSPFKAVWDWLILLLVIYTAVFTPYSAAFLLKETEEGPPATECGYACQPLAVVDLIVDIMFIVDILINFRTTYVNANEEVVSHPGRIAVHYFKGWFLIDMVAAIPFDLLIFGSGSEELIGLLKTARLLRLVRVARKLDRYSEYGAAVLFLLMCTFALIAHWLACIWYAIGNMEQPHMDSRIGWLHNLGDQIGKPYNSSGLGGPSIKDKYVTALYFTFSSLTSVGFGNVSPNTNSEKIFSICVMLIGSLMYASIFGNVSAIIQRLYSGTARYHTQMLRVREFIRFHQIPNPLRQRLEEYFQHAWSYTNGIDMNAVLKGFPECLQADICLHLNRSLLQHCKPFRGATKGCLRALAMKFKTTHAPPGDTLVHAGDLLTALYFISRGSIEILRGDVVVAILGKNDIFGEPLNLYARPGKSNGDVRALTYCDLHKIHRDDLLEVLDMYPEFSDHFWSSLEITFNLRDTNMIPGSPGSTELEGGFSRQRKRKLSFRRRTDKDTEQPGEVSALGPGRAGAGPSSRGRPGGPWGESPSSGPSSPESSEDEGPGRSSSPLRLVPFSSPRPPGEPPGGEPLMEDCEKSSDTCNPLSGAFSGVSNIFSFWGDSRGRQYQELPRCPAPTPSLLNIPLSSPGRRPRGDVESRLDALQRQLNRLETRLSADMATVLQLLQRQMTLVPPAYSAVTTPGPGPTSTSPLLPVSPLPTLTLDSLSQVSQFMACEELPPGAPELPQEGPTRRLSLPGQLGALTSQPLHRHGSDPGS", "assay": "HERG current in Xenopus oocytes injected with HERG cRNA, two-microelectrode voltage clamp", "details": "for effect on current magnitude or voltage-dependence of channel activation: 1 mM within 30 min of application", "method": "(§1) The characteristics of the expressed channel were studied in oocytes 2-6 days after cRNA injection using standard two-microelectrode voltage clamp techniques. HERG current was activated in response to test potentials >−50 mV. […] Deactivation of current (tail current) was assessed after return of the membrane to the holding potential of −70 mV. […] The voltage-dependence of channel activation was assessed by plotting the relative amplitude of tail currents as a function of test potential (FIG. 1D).\n(§2) Xenopus frogs were anesthetized by immersion in 0.2% tricaine for 15-30 min. Ovarian lobes were digested with 2 mg/ml Type 1A collagenase (Sigma) in Ca^2+-free ND96 solution for 1.5 hours to remove follicle cells. […] Barth's solution contained (in mM): 88 NaCl, 1 KCl, 0.4 CaCl2, 0.33 Ca(NO3)2, 1 MgSO4, 2.4 NaHCO3, 10 HEPES; pH 7.4.\n(§3) Unless indicated, oocytes were bathed in ND96 solution. This solution contained (in mM): 96 NaCl, 2 KCl, 1 MgCl2, 1.8 CaCl2, 5 HEPES; pH 7.6. In some experiments, KCl was varied by equimolar substitution with NaCl. Currents were recorded at room temperature (21-23° C.) using standard two-microelectrode voltage clamp techniques. Glass microelectrodes were filled with 3 M KCl and their tips broken to obtain tip resistances of 1-3 MΩ for the voltage-recording electrode and 0.6-1 MΩ for the current-passing electrode. Oocytes were voltage-clamped with a Dagan TEV-200 amplifier. Voltage commands were generated using pClamp software (ver. 6, Axon Instruments), a 486DX2 personal computer and a TL-1 D/A interface (Axon Instruments). Current signals were digitally sampled at a rate equal to 2-4 times the low-pass cut-off frequency (−3 db) of a 4-pole Bessel filter. Unless indicated, currents were corrected for leak and capacitance using standard, on-line P/3 leak subtraction. The oocyte membrane potential was held at −70 mV between test pulses, applied at a rate of 1-3 pulses/min. Data analyses, including exponential fitting of current traces, were performed using pCLAMP. […] Data are expressed as the mean±SEM (n=number of oocytes)."}, "IKr (guinea pig heart)": {"target": "T2, IKr (guinea pig heart) (Cavia porcellus, UniProt O08703)", "T2 construct": "host or cells: guinea pig cardiac myocytes (endogenous current)", "T2 sequence (O08703 1-1294)": "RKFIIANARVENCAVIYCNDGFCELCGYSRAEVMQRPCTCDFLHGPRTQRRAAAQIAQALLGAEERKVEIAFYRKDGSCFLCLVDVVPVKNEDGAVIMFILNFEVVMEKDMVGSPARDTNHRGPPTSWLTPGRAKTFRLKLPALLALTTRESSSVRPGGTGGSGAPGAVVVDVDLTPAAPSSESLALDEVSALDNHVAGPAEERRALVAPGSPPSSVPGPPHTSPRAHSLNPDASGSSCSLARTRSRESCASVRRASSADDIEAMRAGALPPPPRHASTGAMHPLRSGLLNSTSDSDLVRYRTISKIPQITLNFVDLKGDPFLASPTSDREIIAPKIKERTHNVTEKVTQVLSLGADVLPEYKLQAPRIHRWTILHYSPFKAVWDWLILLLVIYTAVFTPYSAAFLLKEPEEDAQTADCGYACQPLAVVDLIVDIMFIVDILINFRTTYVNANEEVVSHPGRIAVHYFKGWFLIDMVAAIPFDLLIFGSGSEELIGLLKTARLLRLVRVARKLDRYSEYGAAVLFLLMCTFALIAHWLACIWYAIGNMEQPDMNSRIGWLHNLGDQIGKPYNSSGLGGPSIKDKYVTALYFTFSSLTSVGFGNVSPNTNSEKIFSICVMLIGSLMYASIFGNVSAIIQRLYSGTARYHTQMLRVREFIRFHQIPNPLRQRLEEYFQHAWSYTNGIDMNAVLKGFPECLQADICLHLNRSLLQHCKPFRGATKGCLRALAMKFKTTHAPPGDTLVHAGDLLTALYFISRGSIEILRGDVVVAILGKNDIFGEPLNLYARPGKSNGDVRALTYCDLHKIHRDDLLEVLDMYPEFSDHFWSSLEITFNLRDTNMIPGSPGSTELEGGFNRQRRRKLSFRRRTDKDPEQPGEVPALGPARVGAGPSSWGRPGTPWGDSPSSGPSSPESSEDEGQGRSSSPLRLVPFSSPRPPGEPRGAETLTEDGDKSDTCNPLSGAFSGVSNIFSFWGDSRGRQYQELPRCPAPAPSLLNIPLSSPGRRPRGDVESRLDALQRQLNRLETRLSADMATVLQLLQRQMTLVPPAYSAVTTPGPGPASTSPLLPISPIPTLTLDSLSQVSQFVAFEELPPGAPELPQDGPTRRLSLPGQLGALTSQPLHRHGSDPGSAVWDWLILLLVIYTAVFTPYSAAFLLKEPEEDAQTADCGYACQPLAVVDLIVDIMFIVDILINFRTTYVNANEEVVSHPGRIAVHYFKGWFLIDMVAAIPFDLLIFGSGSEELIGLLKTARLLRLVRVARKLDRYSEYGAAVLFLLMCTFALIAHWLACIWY", "details": "read-out: IC50 (blockers, methanesulfonanilides); cited from earlier work"}, "HERG [2]": {"target": "T1, HERG", "method": "as §1, §2, §3"}, "IKr of cardiac myocytes": {"system": "IKr of cardiac myocytes", "details": "cited from earlier work"}, "IKr (mouse AT-1 cells)": {"target": "T3, IKr (mouse AT-1 cells) (Mus musculus, UniProt O35219)", "T3 sequence (O35219 1-1162)": "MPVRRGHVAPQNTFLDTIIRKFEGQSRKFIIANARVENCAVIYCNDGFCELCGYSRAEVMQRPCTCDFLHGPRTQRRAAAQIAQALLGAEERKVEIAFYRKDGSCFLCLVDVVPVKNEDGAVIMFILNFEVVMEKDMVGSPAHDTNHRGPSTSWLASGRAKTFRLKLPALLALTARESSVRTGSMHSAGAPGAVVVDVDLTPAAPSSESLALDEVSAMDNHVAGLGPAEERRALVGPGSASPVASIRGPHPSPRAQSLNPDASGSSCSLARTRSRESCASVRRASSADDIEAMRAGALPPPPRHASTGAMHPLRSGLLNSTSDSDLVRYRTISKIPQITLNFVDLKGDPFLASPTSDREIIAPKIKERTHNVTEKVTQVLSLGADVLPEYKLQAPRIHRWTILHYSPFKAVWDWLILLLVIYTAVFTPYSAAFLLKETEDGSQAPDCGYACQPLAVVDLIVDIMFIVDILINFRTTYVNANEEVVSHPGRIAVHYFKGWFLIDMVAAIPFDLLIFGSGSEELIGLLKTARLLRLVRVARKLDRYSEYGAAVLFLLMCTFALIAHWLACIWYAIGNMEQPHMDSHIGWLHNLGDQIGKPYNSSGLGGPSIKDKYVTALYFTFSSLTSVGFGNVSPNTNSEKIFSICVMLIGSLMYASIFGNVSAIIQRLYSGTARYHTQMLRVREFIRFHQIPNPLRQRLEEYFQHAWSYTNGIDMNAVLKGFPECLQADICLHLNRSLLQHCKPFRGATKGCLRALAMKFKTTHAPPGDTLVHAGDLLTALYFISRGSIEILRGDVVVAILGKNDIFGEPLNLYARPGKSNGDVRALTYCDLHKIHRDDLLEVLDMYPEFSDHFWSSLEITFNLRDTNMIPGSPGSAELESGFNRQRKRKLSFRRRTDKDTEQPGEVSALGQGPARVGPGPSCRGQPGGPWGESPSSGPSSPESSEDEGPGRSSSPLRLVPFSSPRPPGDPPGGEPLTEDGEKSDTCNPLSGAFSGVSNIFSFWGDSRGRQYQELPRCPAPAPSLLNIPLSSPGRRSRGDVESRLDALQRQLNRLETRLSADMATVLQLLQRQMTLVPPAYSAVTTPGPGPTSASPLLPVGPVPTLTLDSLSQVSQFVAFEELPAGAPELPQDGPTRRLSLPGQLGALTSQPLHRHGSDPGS", "details": "cited from earlier work"}, "rcKATP-1": {"target": "T4, rcKATP-1 (Rattus norvegicus, UniProt P48548)", "T4 sequence (P48548 1-419)": "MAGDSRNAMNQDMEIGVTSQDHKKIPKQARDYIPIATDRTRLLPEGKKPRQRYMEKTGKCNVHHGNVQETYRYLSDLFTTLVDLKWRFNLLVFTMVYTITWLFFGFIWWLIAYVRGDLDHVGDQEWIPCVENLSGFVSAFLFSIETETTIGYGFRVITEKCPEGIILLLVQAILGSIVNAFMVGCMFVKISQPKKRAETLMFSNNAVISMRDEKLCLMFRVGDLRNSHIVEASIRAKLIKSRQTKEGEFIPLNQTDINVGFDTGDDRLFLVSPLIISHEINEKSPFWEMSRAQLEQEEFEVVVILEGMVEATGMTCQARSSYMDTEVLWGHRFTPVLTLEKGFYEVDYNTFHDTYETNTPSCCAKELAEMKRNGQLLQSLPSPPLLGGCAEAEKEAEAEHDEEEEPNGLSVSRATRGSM", "details": "expressed in HEK293 cells; cited from earlier work"}},
  "note": "Where two headings read alike, the source gives them in different places.",
  "data": [
    {"smiles": "Nc1ncnc2c1nc(Br)n2[C@@H]1O[C@@H]2COP(=O)(O)O[C@H]2[C@H]1O", "note": "[8-Br-cAMP]", "values": [
      {"measurement": "activation of HERG", "setting": "HERG [1]", "result": "not activated"},
      {"measurement": "effect on current magnitude or voltage-dependence of channel activation", "setting": "HERG [1]", "result": "Neither compound had a significant effect"}
    ]},
    {"smiles": "CS(=O)(=O)Nc1ccc2c(c1)[C@H](O)CC1(CCN([C@@H]3CCc4cc(C#N)ccc4C3)CC1)O2", "note": "[MK-499]", "values": [
      {"measurement": "IC50", "setting": "IKr (guinea pig heart)", "result": 44, "unit": "nM"}
    ]},
    {"smiles": "[La+3]", "note": "[La^3+, lanthanum]", "values": [
      {"measurement": "Blockers La^3+, Co^2+", "setting": "HERG [2]", "result": "+"},
      {"measurement": "half-point of activation (isochronal activation curve)", "setting": "HERG [2]", "result": "+23 mV"},
      {"measurement": "block of IKr", "setting": "IKr of cardiac myocytes; 10-100 μM lanthanum", "result": "blocked"},
      {"measurement": "Blockers La^3+, Co^2+", "setting": "IKr (mouse AT-1 cells)", "result": "+"}
    ]},
    {"smiles": "Nc1nc2c(nc(Br)n2[C@@H]2O[C@@H]3COP(=O)(O)O[C@H]3[C@H]2O)c(=O)[nH]1", "note": "[8-Br-cGMP]", "values": [
      {"measurement": "effect on current magnitude or voltage-dependence of channel activation", "setting": "HERG [1]", "result": "Neither compound had a significant effect"}
    ]},
    {"smiles": "CC(C)NCC(O)c1ccc(O)c(O)c1", "note": "(stereo not shown) [isoproterenol]", "values": [
      {"measurement": "increase of IKr", "setting": "IKr of cardiac myocytes; cardiac myocytes", "result": "does not increase"}
    ]},
    {"smiles": "[Co+2]", "note": "[Co^2+, cobalt]", "values": [
      {"measurement": "block of IKr", "setting": "IKr of cardiac myocytes; 2 mM cobalt", "result": "blocked"},
      {"measurement": "block of HERG current", "setting": "HERG [1]; 2 mM Co^2+, n=2", "result": 52, "unit": "%"}
    ]},
    {"smiles": "[K+]", "note": "[K^+]", "values": [
      {"measurement": "increase of HERG current", "setting": "HERG [1]; [K^+]e 5 mM versus 2 mM", "result": 40, "unit": "%"}
    ]},
    {"smiles": "COc1ccc(Cl)cc1C(=O)NCCc1ccc(S(=O)(=O)NC(=O)NC2CCCCC2)cc1", "note": "[glibenclamide]", "values": [
      {"measurement": "block of the channel", "setting": "rcKATP-1", "result": "not blocked"}
    ]}
  ]
}
